Source: article PMC12263422, “Cryo-EM structure of the human THIK-1 K2P K^+ channel reveals a lower Y gate regulated by lipids and anesthetics” (Nature Structural & Molecular Biology, 2025)
Where “and” joins values, the source holds several entries; their conditions need not be identical. Equal entries are not always repeated.

Biological target: T1, THIK-1-Y273W (Homo sapiens, UniProt Q9HB14, Y273W)
T1 construct: expressed in transfected cells; host or cells: Xenopus oocytes (mRNA injection)
T1 sequence (Q9HB14 1-408 Y273W): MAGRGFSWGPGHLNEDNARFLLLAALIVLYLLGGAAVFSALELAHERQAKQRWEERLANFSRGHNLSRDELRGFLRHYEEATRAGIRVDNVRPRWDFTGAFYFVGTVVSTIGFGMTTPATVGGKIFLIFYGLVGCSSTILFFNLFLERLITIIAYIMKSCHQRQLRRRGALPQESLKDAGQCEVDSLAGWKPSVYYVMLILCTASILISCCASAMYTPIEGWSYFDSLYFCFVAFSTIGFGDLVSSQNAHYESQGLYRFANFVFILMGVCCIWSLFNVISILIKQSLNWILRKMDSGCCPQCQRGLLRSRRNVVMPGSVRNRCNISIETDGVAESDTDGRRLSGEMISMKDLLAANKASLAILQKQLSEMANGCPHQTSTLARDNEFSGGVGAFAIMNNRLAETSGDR
Assay: Inside-out excised patch recordings, oocytes, THIK-1 Y273W mutant
Format: cell-based
Excerpt: Human K2P13.1 THIK-1 (GenBank accession number: NM_022054) and human K2P12.1 THIK-2 (NM_022055.1) were used in this study. For functional expression studies, the respective K^+ channel subtype coding sequences were subcloned into the oocyte expression vector pSGEM or the dual-purpose expression vector pFAW[41] and verified by sequencing. All mutant channels were obtained by site-directed mutagenesis and verified by sequencing. To increase surface expression and macroscopic currents, measurements of THIK-2 channels used a mutated ER retention motif, (R11A R12A R14A R15A R16A; THIK-2*)[20]. Vector DNA was linearized with NheI or MluI, and mRNA was synthesized in vitro using the SP6 or T7 AmpliCap Max High Yield Message Maker Kit (Cellscript, USA) or HiScribe T7 ARCA mRNA Kit (New England Biolabs).
Two-electrode voltage–clamp (TEVC) studies were performed in Xenopus oocytes. All animal use conformed to the Guide for the Care and Use of Laboratory Animals (NIH Publication 85–23), and all experiments using Xenopus toads were approved by the local ethics panels. Oocytes were stored at 17 °C in ND96 recording solution composed of (in mM): 96 NaCl, 2 KCl, 1.8 CaCl2, 1 MgCl2, 5 HEPES (pH 7.5 adjusted with NaOH and HCl), supplemented with Na-pyruvate (275 mg L^–1), theophylline (90 mg L^–1) and gentamicin (50 mg L^–1). Oocytes were injected with 1 ng mRNA for WT or mutant channels, and were incubated for 24–48 h at 17 °C. Two-electrode voltage clamp recordings were then performed as previously described[42],[43]. For macroscopic patch–clamp measurements, oocytes were obtained as described above incubated at 17 °C in a solution containing (mM): 54 NaCl, 30 KCl, 2.4 NaHCO3, 0.82 MgSO4 ×7 H2O, 0.41 CaCl2, 0.33 Ca(NO3)2 ×4 H2O and 7.5 TRIS (pH 7.4 adjusted with NaOH and HCl) for 1–4 days before use. Excised patch recordings in inside-out configuration conditions were performed at room temperature. Patch pipettes were made from thick-walled borosilicate glass GB 200TF-8P (Science Products), had resistances of 0.2–0.5 MΩ (tip diameter, 10–25 µm) and filled with a pipette solution (in mM): 120 KCl, 10 HEPES and 3.6 CaCl2 (pH 7.4 adjusted with KOH and HCl). […] Currents were recorded with an EPC10 amplifier (HEKA Electronics) and sampled at 10 kHz or higher, with filtering set to 3 kHz (–3 dB) or higher, as appropriate for sampling rate. For measurements of GPCR activation, whole-cell currents were recorded for THIK-1 in transiently transfected HEK-293 cells. […] Single-channel currents were recorded with an Axopatch 200B amplifier through a Digidata 1440A digitizer (Molecular Devices). Data were filtered at 2 kHz and recorded at a 200-kHz sampling rate with the program Clampex (Molecular Devices). […]

SMILES: CCCCC[N+](CCCCC)(CCCCC)CCCCC [TPenA, tetrapentylammonium]
- τ of 1 mM TPenA block (individual recordings): 13.500 s and 9.700 s and 8.400 s and 10.003 s and 8.350 s and 4.860 s and 3.160 s and 2.380 s and 2.990 s and 4.490 s and 10.150 s and 2.500 s and 2.400 s and 9.800 s and 5.700 s and 4.500 s and 4.080 s
- τ of 1 mM TPenA release (individual recordings): 20.400 s and 14.700 s and 10.800 s and 14.800 s and 23.260 s and 14.350 s and 14.990 s and 14.820 s and 16.280 s and 20.350 s and 17.660 s
- τ of 1 mM TPenA block (mean): 6.29 s
- τ of 1 mM TPenA release (mean): 16.58 s
